# In patent publication US20220107328A1, “METHODS OF TREATING LIVER DISEASES” (Camp4 Therapeutics Corporation, priority 2018, published 2022):
# Assays:
# PNPLA3 mRNA [1] = assay: qRT-PCR of PNPLA3 mRNA in compound-treated mouse hepatocytes; format: cell-based
# Procedure: Analysis of the fold changes in expression as measured by qRT-PCR were performed using the technique below. The control was DMSO, and the treatment was the selected compound (CPD). The internal control was GAPDH or B-Actin (or otherwise indicated), and the gene of interest is the target. First, the averages of the 4 conditions were calculated for normalization: DMSO:GAPDH, DMSO:Target, CPD: GAPDH, and CPD:Target. Next, the ΔCT of both control and treatment were calculated to normalize to internal control (GAPDH) using (DMSO:Target)−(DMSO:GAPDH)=ΔCT control and (CPD:Target)−(CPD: GAPDH)=ΔCT experimental. Then, the ΔΔCT was calculated by ΔCT experimental−ΔCT control. The Expression Fold Change (or Relative Quantification, abbreviated as RQ) was calculated by 2−(ΔΔCT) (2-fold expression change was shown by RNA-Seq results provided herein).
# Compounds were tested at concentrations ranging from 0.01 μM to 50 μM. […] PNPLA3 levels were normalized to the level of a house keeping gene ACTB.
# PNPLA3 mRNA [2] = assay: qRT-PCR of PNPLA3 mRNA in human primary hepatic stellate cells; format: cell-based; settings: for Relative PNPLA3 level vs Untreated (±Standard Deviation): normalized to GAPDH; for PNPLA3 expression in stellate cells from different donors (in words): donors I/I and M/M, eight concentrations
# [3] = system: lipid content in primary human hepatocytes (M/M homozygous); assay: Lipid (Oil Red O) staining of primary human hepatocytes; format: cell-based; settings: 3.3 μM
# Description: DMSO and chloroquine were used as controls. After treatment, the cells were fixed and stained with ORO using the BioVision Lipid (Oil Red O) Staining Kit (cat #K580-24) according to the manufacturer's instructions. Parallel treatment samples were processed for qRT-PCR as previously described. Representative light microscopy images of each treatment are shown in FIG. 14A and a quantification of the PNPLA3 mRNA levels are shown in FIG. 14B.
# [4] = system: PNPLA3 mRNA in mouse liver; assay: High sucrose diet mouse pharmacology study, liver PNPLA3 mRNA; format: in vivo; settings: for PNPLA3 liver mRNA after exclusion of outliers and re-analysis (in words) / PNPLA3 liver mRNA, dose titration (in words): 6 hours post dose; for PNPLA3 liver mRNA, dose titration (in words): decreasing doses QD oral gavage four days
# Procedure: LY2157299 was also tested in vivo. C57BL/6J mice were divided into […]. Each group had 6 male mice. […] Groups 1-10 received food throughout the dosing period. […] Eyes were also collected for groups 11-14.
# (§1) Mouse liver tissues were pulverized in liquid nitrogen and aliquoted into small microtubes. TRIzol (Invitrogen Cat #15596026) was added to the tubes to facilitate cell lysis from tissue samples. The TRIzol solution containing the disrupted tissue was then centrifuged and the supernatant phase was collected. Total RNA was extracted from the supernatant using Qiagen RNA Extraction Kit (Qiagen Cat#74182) and the PNPLA3 mRNA levels were analyzed using qRT-PCR.
# (§2) C57BL/6J mice were divided into 14 groups. Each group had 6 male mice. All mice were given an HS diet at night on a synchronized schedule. […] The animals received no food at night on Day 10.
# as §1, with “Cat #74182)” for “Cat#74182)”, “target” for “PNPLA3”, “qRT-PCR. mRNA levels for PNPLA3, PNPLA5, COL1A1, and PCSK9 were assessed.” for “qRT-PCR.”
# [5] = system: COL1A1 mRNA in mouse liver; assay: High sucrose diet mouse dose response study, liver COL1A1 mRNA; format: in vivo; settings: HS diet mice, 6 hours post dose
# Procedure: as §2
# as §1, with “Cat #74182)” for “Cat#74182)”, “target” for “PNPLA3”, “qRT-PCR. mRNA levels for PNPLA3, PNPLA5, COL1A1, and PCSK9 were assessed.” for “qRT-PCR.”
# [6] = system: ANGPTL3 mRNA in mouse liver; assay: High sucrose diet mouse dose response study, liver ANGPTL3 mRNA; format: in vivo; settings: HS diet mice, 6 hours post dose
# [7] = system: phosphorylated AKT (pAKT/AKT); assay: Western blot of phosphorylated AKT in human hepatocytes; format: cell-based; settings: 3 μM; for phosphorylated AKT (pAKT/AKT) over time (in words): 35 min to 20 hrs, relative to DMSO control; for pAKT (473)/AKT: human hepatocytes, mTORC2 pathway, time point not stated
# Procedure: Levels of phosphorylated S6, AKT, and NDRG1 proteins were determined as compared to total S6, AKT, and NDRG1 protein. PNPLA3 mRNA expression was quantified and normalized to housekeeping gene GUSB.
# [8] = system: PNPLA3 mRNA in mouse liver; assay: High sucrose diet mice, liver PNPLA3 mRNA after five doses (Example 31); format: in vivo
# Procedure: Mouse 7-8 week old C57BL/6J mice were divided into 9 groups. Each group had 8 male mice. All mice were given a high sucrose diet for 10 days (Diet no. 901683; 74% kCal from sucrose. MP Biomedicals, Santa Ana, Calif.) at the start of the dark cycle, about 7 pm. Food was removed at the start of the light cycle, about 7 am, except on the last day, when food was left in the cage until termination. On day 7-10, mice were administered daily (QD) via oral gavage, candidate compounds at a volume of 10 mL/kg with the compound in vehicle solution (0.5% methylcellulose/0.2% tween20). Vehicle alone was administered to control group 1. OSI-027 was administered at 25 mg/kg, 10 mg/kg, 5 mg/kg, and 2 mg/kg to groups 2-5. […] The treatment was administered in the evening on Days 7 to 10 and in the morning on Day 11, starting at 5 am. On Day 11, mice were terminated 4 hours post last dose at 9 am, for a total of 5 doses of each candidate compound. Mice were weighed 2×/week until Day 11. Liver and blood samples were collected after mice were terminated. Liver samples were process for mRNA extraction as previously described. Blood samples were processed for serum collection. The geometric mean for the mRNA analysis was calculated by averaging the PCR CTs from the housekeepering genes ACTB, GAPDH, GUSB, HPRT, and B2M from the same cDNA sample.
# [9] = HS diet mice, QD oral gavage four days, OSI-027 50 mg/kg, PF-04691502 10 mg/kg
compound,measurement,setting,value
COc1cccc2cc(-c3nc([C@H]4CC[C@H](C(=O)O)CC4)n4ncnc(N)c34)[nH]c12 [OSI-027],Relative PNPLA3 mRNA levels,"PNPLA3 mRNA [1]; mouse hepatocytes, 1 μM, normalized to ACTB",0.24 ± 0.12
same,Relative PNPLA3 mRNA expression,"PNPLA3 mRNA [2]; 0.04 uM, Table 36 (cell type not given)",1.071
same,Relative PNPLA3 mRNA expression,"PNPLA3 mRNA [2]; 0.122 uM, Table 36",0.795
same,Relative PNPLA3 mRNA expression,"PNPLA3 mRNA [2]; 0.37 uM, Table 36",0.427
same,Primary Stellate cells PNPLA3 (fold change in mRNA expression),"PNPLA3 mRNA [2]; 3 μM, relative to GAPDH",0.57
same,Relative PNPLA3 mRNA expression,"PNPLA3 mRNA [2]; 3.3 uM, Table 36",0.262
same,Relative PNPLA3 level vs Untreated (±Standard Deviation),"PNPLA3 mRNA [2]; (I/I) homozygous human stellate cells, 0.00045 uM",1.25 ± 0.10
same,Relative PNPLA3 level vs Untreated (±Standard Deviation),"PNPLA3 mRNA [2]; (I/I) homozygous human stellate cells, 0.012 uM",0.89 ± 0.05
same,Relative PNPLA3 level vs Untreated (±Standard Deviation),"PNPLA3 mRNA [2]; (I/I) homozygous human stellate cells, 0.037 uM",0.97 ± 0.12
same,Relative PNPLA3 level vs Untreated (±Standard Deviation),"PNPLA3 mRNA [2]; (I/I) homozygous human stellate cells, 0.33 uM",0.57 ± 0.05
same,Relative PNPLA3 level vs Untreated (±Standard Deviation),"PNPLA3 mRNA [2]; (I/I) homozygous human stellate cells, 1 uM",0.62 ± 0.09
same,Relative PNPLA3 level vs Untreated (±Standard Deviation),"PNPLA3 mRNA [2]; (M/M) homozygous human stellate cells, 0.00045 uM",0.96 ± 0.12
same,Relative PNPLA3 level vs Untreated (±Standard Deviation),"PNPLA3 mRNA [2]; (M/M) homozygous human stellate cells, 0.012 uM",0.92 ± 0.12
same,Relative PNPLA3 level vs Untreated (±Standard Deviation),"PNPLA3 mRNA [2]; (M/M) homozygous human stellate cells, 0.037 uM",1.08 ± 0.04
same,Relative PNPLA3 level vs Untreated (±Standard Deviation),"PNPLA3 mRNA [2]; (M/M) homozygous human stellate cells, 0.33 uM",0.63 ± 0.03
same,Relative PNPLA3 level vs Untreated (±Standard Deviation),"PNPLA3 mRNA [2]; (M/M) homozygous human stellate cells, 1 uM",0.60 ± 0.05
same,EC50,"PNPLA3 mRNA [2]; Homo sapiens, PNPLA3 dose-response, Stellate cell (M/M)",62 nM
same,PNPLA3 expression in stellate cells from different donors (in words),PNPLA3 mRNA [2],effectively decreased PNPLA3 expression in a dose-dependent manner
same,lipid content (in words),[3],reduced lipid content in primary human hepatocytes
same,PNPLA3 liver mRNA after exclusion of outliers and re-analysis (in words),[4],more significant dose dependent decrease in PNPLA3 mRNA
same,"PNPLA3 liver mRNA, 6 hours post-dose (in words)",[4]; [9],reduced PNPLA3 mRNA
same,"PNPLA3 liver mRNA, 12 hours post-dose (in words)","[4]; HS diet mice, QD oral gavage four days, OSI-027 50 mg/kg, PF-04691502 10 mg/kg, LY2157299 75 mg/kg",reduced PNPLA3 mRNA
same,"PNPLA3 liver mRNA, dose titration (in words)",[4]; HS diet mice,dose dependent decrease
same,"COL1A1 liver mRNA, dose titration (in words)",[5],did not result in a significant decrease in COL1A1 mRNA
same,"ANGPTL3 liver mRNA, dose titration (in words)",[6],dose dependent decrease
same,phosphorylated AKT (pAKT/AKT) over time (in words),[7],decreased at 4.5 hours
same,pAKT (473)/AKT,[7],0.06
same,relative PNPLA3 mRNA in mouse livers (in words),"[8]; OSI-027 25, 10, 5, 2 mg/kg, PF-04691502 10, 5, 2, 1 mg/kg, five doses, 4 hours post last dose, p<0.00001 vs control",decreased PNPLA3 at each dose tested
same,reduction of PNPLA3 expression in vivo,"[8]; three different concentrations (10 mg/kg, 5 mg/kg, 2 mg/kg)",50%
COc1ccc(-c2cc3c(C)nc(N)nc3n([C@H]3CC[C@H](OCCO)CC3)c2=O)cn1 [PF-04691502],mrna remaining at 1 µM,"PNPLA3 mRNA [1]; Hepatocyte, Mouse hepatocytes, 1 uM, read-out: PNPLA3 mRNA remaining after treatment compared to untreated cells",43%
same,mrna remaining at 10 µM,"PNPLA3 mRNA [1]; Hepatocyte, Mouse hepatocytes, 10 uM, read-out: PNPLA3 mRNA remaining after treatment compared to untreated cells",20%
same,mrna remaining at 1 µM,"PNPLA3 mRNA [2]; Human Stellate, 1 uM, read-out: PNPLA3 mRNA remaining after treatment compared to untreated cells",20%
same,mrna remaining at 10 µM,"PNPLA3 mRNA [2]; Human Stellate, 10 uM, read-out: PNPLA3 mRNA remaining after treatment compared to untreated cells",35%
same,PNPLA3 expression in stellate cells from different donors (in words),PNPLA3 mRNA [2],effectively decreased PNPLA3 expression in a dose-dependent manner
same,lipid content (in words),[3],reduced lipid content in primary human hepatocytes
same,PNPLA3 liver mRNA after exclusion of outliers and re-analysis (in words),[4],greater decrease in PNPLA3 mRNA
same,"PNPLA3 liver mRNA, 6 hours post-dose (in words)",[4]; [9],reduced PNPLA3 mRNA at 6 hours post-dose
same,"PNPLA3 liver mRNA, dose titration (in words)",[4]; HS diet mice,dose dependent decrease in PNPLA3 and PNPLA5 mRNA
same,"COL1A1 liver mRNA, dose titration (in words)",[5],"decrease in COL1A1, ANGLPTL3 and PCSK9 mRNA"
same,"ANGPTL3 liver mRNA, dose titration (in words)",[6],"decrease in COL1A1, ANGLPTL3 and PCSK9 mRNA"
same,phosphorylated AKT (pAKT/AKT) over time (in words),[7],decreased at 20 hours
same,pAKT (473)/AKT,[7],0.06
same,decrease in PNPLA3,"[8]; lowest dose, 1 mg/kg",50%
